Literature values in patent US20150157714A1, “IMPLEMENTATION OF NON-PATHOGENIC BIOLUMINESCENT BACTERIA AS A SUB-MICRON LIGHT EMITTING SOURCE FOR PHOTO-DYNAMIC THERAPY IN THE LUNGS” (priority 2013, published 2015).

Tested on: not given
Conditions: FIG. 1, representative spectral curve

| Compound | spectral curve runs to wavelength | spectral curve starts at wavelength | spectral peak of emitted light |
| --- | --- | --- | --- |
| Mutated Firefly luciferase S284T: mutated firefly luciferase S284T | about 720 nm | about 520 nm | about 630 nm |
| Wild-type Firefly luciferase (FFluc): Wild-type Firefly luciferase from Photinus pyralis, uses D-luciferin, ATP dependent | about 680 nm | about 460 nm | about 557 nm |

Tested on: multi-drug resistant Pseudomonas aeruginosa (Gram −) isolates
Conditions: 60 different multi-drug resistant isolates

| Compound | reduction of isolates with PDT |
| --- | --- |
| Cc1cc2nc3ccc(N(C)C)cc3[s+]c2cc1N.[Cl-] [Toluidine Blue] | significantly reduced |

Tested on: not given
Conditions: absorption spectra wavelengths for photochemical interactions

| Compound | Spectral Absorption Ranges and Peaks |
| --- | --- |
| CCOC(=O)C1=Cc2c3nc(cc4nc(cc5[n-]c(cc6[n-]c2c(C)c6CC)c(C)c5CC)C(C)=C4CC)[C@@H](C)[C@]13CC.[Cl-].[Cl-].[Sn] (racemic) [Tin etiopurpurin] | 660 nm |
| Cc1c(C(=O)O)c(O)cc2c1C(=O)c1c(O)c(C3O[C@H](CO)[C@@H](O)[C@H](O)[C@H]3O)c(O)c(O)c1C2=O (stereo in doubt) [Carmine] | 500-570 nm |
| NCC(=O)CCC(=O)O [ALA] | 635 nm |
| COc1cc(S(=O)(=O)[O-])c(C)cc1N=Nc1c(O)ccc2cc(S(=O)(=O)[O-])ccc12.[Na+].[Na+] [Allura Red AC] | 504 nm |
| CNc1ccc2nc3ccc(N)cc3[s+]c2c1.[Cl-] [Azure C] | 580-640 nm |
| CC1=C(/C=C/C(C)=C/C=C/C(C)=C/C=C/C=C(C)/C=C/C=C(C)/C=C/C2=C(C)CCCC2(C)C)C(C)(C)CCC1 [Beta carotene] | 470 nm |
| O=S(=O)([O-])c1cc(S(=O)(=O)[O-])c2c(N=Nc3ccc(S(=O)(=O)[O-])c4ccccc34)c(O)ccc2c1.[Na+].[Na+].[Na+] [Brilliant Scarlet 4R] | 503 nm |
| O=S(=O)([O-])c1ccc(N=Nc2cc(S(=O)(=O)[O-])c3ccccc3c2O)c2ccccc12.[Na+].[Na+] [Carmoisine azorubine] | 515 nm |
| O=S(=O)([O-])c1ccc(/N=N/c2cc(S(=O)(=O)[O-])c3ccccc3c2O)c2ccccc12.[Na+].[Na+] [Chromotrope FB] | 512 nm |
| Nc1c(/N=N/c2ccc(-c3ccc(/N=N/c4cc(S(=O)(=O)O)c5ccccc5c4N)cc3)cc2)cc(S(=O)(=O)O)c2ccccc12 [Congo Red] | 400-560 nm |
| CN(C)c1ccc(C(=C2C=CC(=[N+](C)C)C=C2)c2ccc(N(C)C)cc2)cc1 [Crystal Violet] | 550-610 nm |
| CC(=O)Nc1ccc2nc3c4ccccc4c(=N)cc-3oc2c1.Cl [Darrow Red] | 450-550 nm |
| O=C([O-])c1ccccc1-c1c2cc(Br)c(=O)c(Br)c-2oc2c(Br)c([O-])c(Br)cc12.[Na+].[Na+] [Eosin Y] | 490-530 nm |
| CCN(Cc1cccc(S(=O)(=O)[O-])c1)c1ccc(C(=C2C=CC(=[N+](CC)Cc3cccc(S(=O)(=O)[O-])c3)C=C2)c2ccccc2S(=O)(=O)[O-])cc1.[Na+].[Na+] [Erioglaucine disodium salt] | 629 nm |
| O.O=C([O-])c1ccccc1-c1c2cc(I)c(=O)c(I)c-2oc2c(I)c([O-])c(I)cc12.[Na+].[Na+] [Erythrosin B] | 510-540 nm |
| CCOC(=O)c1ccccc1-c1c2cc(Br)c(=O)c(Br)c-2oc2c(Br)c([O-])c(Br)cc12.[K+] [Ethyl Eosin] | 530-550 nm |
| CCN(Cc1cccc(S(=O)(=O)[O-])c1)c1ccc(C(=C2C=CC(=[N+](CC)Cc3cccc(S(=O)(=O)[O-])c3)C=C2)c2ccc(O)cc2S(=O)(=O)[O-])cc1.[Na+].[Na+] [Fast Green] | 560+ nm |
| O=C1/C(=C2\Nc3ccc(S(=O)(=O)[O-])cc3C2=O)Nc2ccc(S(=O)(=O)[O-])cc21.[Na+].[Na+] [Indigo Carmine] | 608 nm |
| CCN(Cc1cccc(S(=O)(=O)O)c1)c1ccc(C(=C2C=CC(=[N+](CC)Cc3cccc(S(=O)(=O)O)c3)C=C2)c2ccc(S(=O)(=O)O)cc2)cc1.[Na+].[Na+] [Light Green SF] | 590+ nm |
| CN(C)c1ccc(C(=C2C=CC(=[N+](C)C)C=C2)c2c(O)c(S(=O)(=O)[O-])cc3cc(S(=O)(=O)[O-])ccc23)cc1.[Na+] [Lissamine green] | 633 nm |
| CC(C)=CCC/C(C)=C/C=C/C(C)=C/C=C/C(C)=C/C=C/C=C(C)/C=C/C=C(C)/C=C/C=C(\C)CCC=C(C)C [Lycopene] | 530 nm |
| CN(C)c1ccc(C(=C2C=CC(=[N+](C)C)C=C2)c2ccc([N+](C)(C)C)cc2)cc1.[Cl-].[Cl-] [Methyl Green] | 560+ nm |
| CN(C)c1ccc2nc3ccc(=[N+](C)C)cc-3sc2c1 [Methylene Blue] | 590+ nm |
| Cc1cc2nc3ccc(N(C)C)cc3nc2cc1N.Cl [Neutral Red] | 480-570 nm |
| O=S(=O)([O-])c1cc(S(=O)(=O)[O-])c2c(N=Nc3ccc(S(=O)(=O)[O-])c4ccccc34)c(O)ccc2c1.[Na+].[Na+].[Na+] [New Coccine] | 506 nm |
| Nc1c(O)c(S(=O)(=O)[O-])c(O)c2c1C(=O)c1ccccc1C2=O.[Na+] [Nuclear Fast Red] | 460-550 nm |

| Compound | Spectral Absorption Ranges and Peaks |
| --- | --- |
| O=S(=O)(O)c1cc(S(=O)(=O)O)c2c(/N=N/c3ccccc3)c(O)ccc2c1 [Orange G] | 450-510 nm |
| O=C([O-])c1c(Cl)c(Cl)c(Cl)c(Cl)c1-c1c2cc(Br)c(=O)c(Br)c-2oc2c(Br)c([O-])c(Br)cc12.[Na+].[Na+] [Phloxine B] | 520+ nm |
| Cc1cc2nc3c(=O)[nH]c(=O)nc-3n(C[C@H](O)[C@H](O)[C@H](O)COP(=O)([O-])O)c2cc1C.[Na+] [Riboflavin 5′-monophosphate sodium salt] | 441 nm |
| O=C([O-])c1c(Cl)c(Cl)c(Cl)c(Cl)c1-c1c2cc(I)c(=O)c(I)c-2oc2c(I)c([O-])c(I)cc12.[Na+].[Na+] [Rose bengal] | 548 nm |
| Cc1cc2nc3cc(C)c(N)cc3[n+](-c3ccccc3)c2cc1N.[Cl-] [Safranin O] | 470-550 nm |
| CCOC(=O)C1=Cc2c3nc(cc4nc(cc5[n-]c(cc6[n-]c2c(C)c6CC)c(C)c5CC)C(C)=C4CC)[C@@H](C)[C@]13CC.[Cl-].[Cl-].[Sn] [SnEt2 (Purlytin), SnEt2] | 660 nm |
| Cc1ccccc1/N=N/c1ccc(/N=N/c2c(O)ccc3ccccc23)c(C)c1 [Sudan IV] | 470-580 nm |
| C=Cc1c(C)c2cc3nc(c(CC(=O)N[C@@H](CC(=O)O)C(=O)O)c4[nH]c(cc5nc(cc1[nH]2)C(C)=C5CC)c(C)c4C(=O)O)[C@@H](CCC(=O)O)[C@@H]3C [Talaporfin (LS11, MACE, Npe6), Talaporfin] | 660 nm |
| O=C([O-])C1=NN(c2ccc(S(=O)(=O)[O-])cc2)C(=O)C1N=Nc1ccc(S(=O)(=O)[O-])cc1.[Na+].[Na+].[Na+] (stereo not drawn) [Tartrazine] | 400-460 nm |
| Cc1cc2nc3ccc(N(C)C)cc3[s+]c2cc1N.[Cl-] [Toluidine Blue] | 560+ nm |
| Cc1cc(-c2ccc(/N=N/c3c(S(=O)(=O)O)cc4cc(S(=O)(=O)O)cc(N)c4c3O)c(C)c2)ccc1/N=N/c1c(S(=O)(=O)O)cc2cc(S(=O)(=O)O)cc(N)c2c1O [Trypan Blue] | 500+ nm |
| Acid Fuchsin | 530-560 nm |
| Aniline Blue | 550-620 nm |
| Azure B | 580+ nm |
| BPD-ma | 689 nm |
| Basic Fuchsin | 520-570 nm |
| Brilliant Cresyl Blue | 550+ nm |
| HPPH | 665 nm |
| Luxol Fast Blue | 500-640 nm |
| Mono-N-Aspartyl Chlorin e6 | 664 nm |
| Nickel 5,10-bis-acrylate etioporphyrin I | 580 nm |
| Phthalocyanine-4 | 670 nm |
| Silicon phthalocyanine [Silicon phthalocyanine (Pc4)] | 675 nm |
| Sudan Red | 450-590 nm |
| Taporfin Sodium | 664 nm |
| Verteporfin | 690 nm |

Same assay, conditions: visible light absorption peaks named in text

| Compound | absorption peak |
| --- | --- |
| C=Cc1c(C)c2cc3nc(c(CC(=O)O)c4[nH]c(cc5nc(cc1[nH]2)C(C)=C5CC)c(C)c4C(=O)O)[C@@H](CCC(=O)O)[C@@H]3C [Chlorin e6] | 410 nm |
| Si(IV)-naphthocyanine | 773 nm |

Tested on: methicillin-resistant Staphylococcus aureus (MRSA)
Conditions: with 632.8 nm light

| Compound | eradication of MRSA |
| --- | --- |
| Cc1cc2nc3ccc(N(C)C)cc3[s+]c2cc1N.[Cl-] [Toluidine Blue] | eradicate |

Tested on: Multidrug-resistant Pseudomonas aeruginosa
Conditions: 635 nm light

| Compound | susceptibility to photosensitizer and light |
| --- | --- |
| CN(C)c1ccc2nc3ccc(=[N+](C)C)cc-3sc2c1 [Methylene Blue] | susceptibility |
